According to patent US9676719B2, “Phenyl derivative” (ONO PHARMACEUTICAL CO., LTD., priority 2013, dated 2017):
In brackets after ≈: the same amount, converted by molar mass.

Tests used:
human S1P2 (EDG-5) = target: T1, human S1P2 (EDG-5) (Homo sapiens, UniProt O95136); assay: S1P2 (EDG-5) antagonistic activity by monitoring the change in intracellular calcium ion concentration (human); type: cell-based; conditions: CHO cells overexpressing human S1P2 (EDG-5) gene; suppression of S1P (30 or 300 nM)-induced intracellular calcium increase, Fura2-AM
T1 construct: expressed in transfected cells; host or cells: CHO cells (G418 selection)
Procedure: (§1) Chinese hamster ovary (CHO) cells overexpressing the human S1P2 (EDG-5) gene were cultured in a Ham's F12 medium containing 10% fetal bovine serum (FBS), an antibiotic/antifungal agent and G418. CHO cells overexpressing the rat S1P2 (EDG-5) gene were cultured in a Ham's F12 medium containing 10% FBS, penicillin/streptomycin and blasticidin S. The cultured cells were incubated in a Fura2-AM solution (5 μM) [a Ham's F12 medium containing FBS (10%), HEPES buffer (20 mM, pH 7.2 to 7.5) and probenecid (2.5 mM)] at 37° C. for 60 minutes. The cells were washed twice with a Hanks' balanced saline containing HEPES buffer (20 mM, pH 7.2 to 7.5) and probenecid (2.5 mM) and immersed in the same solution. A plate was mounted on a fluorescence-based drug screening system and the intracellular calcium ion concentration was measured for 30 seconds without stimulation. A test substance (the final concentration of human S1P2: 0.25 nM to 25 μM and the final concentration of rat S1P2: 0.25 nM to 2.5 μM) or a dimethyl sulphoxide (DMSO) solution was added and after 3 minutes S1P (final concentration: 30 or 300 nM) was added and the increase in the intracellular calcium ion concentration before and after the addition of S1P was measured with an interval of 3 seconds (excitation wavelength: 340 nm and 380 nm, fluorescence wavelength: 540 nm).
(§2) The S1P2 (EDG-5) antagonistic activity was calculated as a suppression (%) from the following formula, wherein A is a control value which was a peak value after addition of S1P (final concentration: 30 or 300 nM) in the wells added with DMSO without a test substance and B is an increased amount after addition of S1P in the cells treated with the test substance: [M 1] Suppression (%)=[(A−B)/A]×100
(§3) Comparative compounds used were the compounds disclosed in Example 1 (64) (hereinafter referred to as comparative compound A) and Example 1 (85) (hereinafter referred to as comparative compound B) in Patent Document 3 (WO 2004/002531). The structural formulae of the comparative compounds are shown below respectively.

rat S1P2 (EDG-5) = target: T2, rat S1P2 (EDG-5) (Rattus norvegicus, UniProt P47752); assay: S1P2 (EDG-5) antagonistic activity by monitoring the change in intracellular calcium ion concentration (rat); type: cell-based; conditions: CHO cells overexpressing rat S1P2 (EDG-5) gene; suppression of S1P (30 or 300 nM)-induced intracellular calcium increase, Fura2-AM
T2 construct: expressed in transfected cells; host or cells: CHO cells (blasticidin S selection)
Procedure: as §1, §2, §3

Solubility measurement = type: physicochemical; conditions: aqueous buffer, kinetic from dmso stock; second solution of Japanese Pharmacopoeia (pH 6.8), room temperature, stirring 5 hours, LC-MS/MS
Procedure: A solution for obtaining a calibration curve was prepared by diluting a test substance (10 mmol/L, DMSO solution) in acetonitrile and adding acetonitrile containing an internal standard substance (warfarin) to adjust to 0.1, 0.4 and 2 μmol/L. A sample solution was prepared by adding to 495 μL (pH 6.8) of the second solution defined in Japanese Pharmacopoeia (a solution used was obtained by adding water to 250 mL of a 0.2 mol/L potassium dihydrogen phosphate reagent solution and 118 mL of a 0.2 mol/L sodium hydroxide reagent solution to adjust to 1000 mL) 5 μL of a test substance (10 mmol/L, DMSO solution), stirring at room temperature for 5 hours, transferring the obtained solution to a plate with a filter for vacuum filtration, diluting 20 μL of the filtrate with acetonitrile and adding acetonitrile containing the internal standard. The solution for obtaining a calibration curve and the sample solution (5 μL each) were injected to LC-MS/MS (Discovery Max from Thermo Scientific) for quantification (quantification range: 0.1 to 2 μmol/L). The solubility was calculated by multiplying the quantified value by 50. When the quantified value was outside of the quantification range, the solubility was expressed as <5 μmol/L or 100 μmol/L.

T1 sequence (O95136 whole entry): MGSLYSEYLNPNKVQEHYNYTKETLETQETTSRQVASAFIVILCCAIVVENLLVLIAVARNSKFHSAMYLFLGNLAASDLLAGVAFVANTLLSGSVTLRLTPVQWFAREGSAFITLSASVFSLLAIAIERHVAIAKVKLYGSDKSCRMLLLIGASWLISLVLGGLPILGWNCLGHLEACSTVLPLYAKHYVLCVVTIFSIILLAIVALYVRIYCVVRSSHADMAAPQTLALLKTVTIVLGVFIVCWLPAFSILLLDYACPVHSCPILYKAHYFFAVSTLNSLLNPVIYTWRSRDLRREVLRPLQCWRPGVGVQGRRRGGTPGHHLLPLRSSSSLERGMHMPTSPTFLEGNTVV
T2 sequence (P47752 whole entry): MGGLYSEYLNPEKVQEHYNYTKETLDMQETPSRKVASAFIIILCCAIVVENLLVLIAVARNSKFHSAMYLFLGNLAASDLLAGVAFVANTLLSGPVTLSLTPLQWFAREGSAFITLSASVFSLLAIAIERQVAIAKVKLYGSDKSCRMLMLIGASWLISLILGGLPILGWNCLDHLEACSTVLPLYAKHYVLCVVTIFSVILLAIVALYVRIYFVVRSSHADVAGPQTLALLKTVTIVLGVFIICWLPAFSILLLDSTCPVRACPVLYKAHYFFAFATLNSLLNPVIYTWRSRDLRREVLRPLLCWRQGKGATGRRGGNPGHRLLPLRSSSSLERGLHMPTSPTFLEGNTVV

Row | IC50 (human S1P2 (EDG-5)) [nM] | IC50 (rat S1P2 (EDG-5)) [nM] | solubility at 5 h (Solubility measurement) [µM] | Compound
1 | 8.4 | 5.1 | 74 (≈ 41.5 µg/mL) | O=C(Nc1cc(Oc2ccc(C3(C(=O)O)CCCC3)cc2)cc(C(F)(F)F)c1)N1CCC(O)(C2CCCCC2)C1 (stereo not shown) [Example 5 (7), 1-{4-[3-{[(3-cyclohexyl-3-hydroxy-1-pyrrolidinyl)carbonyl]amino}-5-(trifluoromethyl)phenoxy]phenyl}cyclopentanecarboxylic acid]
2 | 4.6 | 9.4 | 72 (≈ 41 µg/mL) | CS(=O)(=O)NC(=O)c1ccc(Oc2cc(NC(=O)N3CCC(O)(C4CCCC4)CC3)cc(C(F)(F)F)c2)cc1 [Example 5 (1), 4-cyclopentyl-4-hydroxy-N-[3-{4-[(methylsulphonyl)carbamoyl]phenoxy}-5-(trifluoromethyl)phenyl]-1-piperidine carboxamide]
3 | 7.3 | 3 | 90 (≈ 49.6 µg/mL) | CC(C)CC1(O)CCN(C(=O)Nc2cc(C(=O)Oc3ccc(C(C)(C)C(=O)O)cc3)cc(C(F)(F)F)c2)CC1 [Example 8, 2-(4-{[3-{[(4-hydroxy-4-isobutyl-1-piperidinyl)carbonyl]amino}-5-(trifluoromethyl)benzoyl]oxy}phenyl)-2-methylpropanoic acid]

The remaining lines, values behind:

Row | Compound | IC50 (human S1P2 (EDG-5)) [nM] | IC50 (rat S1P2 (EDG-5)) [nM] | solubility at 5 h (Solubility measurement) [µM]
4 | CCC(CC)CC1(O)CCN(C(=O)Nc2cccc(Oc3ccc(F)cc3)c2)CC1 [Comparative compound B, reference compound] | 1200 | 27 | < 5
5 | CCC(CC)CC1(O)CCN(C(=O)Nc2cc(F)cc(C(F)(F)F)c2)CC1 [Comparative compound A, reference compound] |  |  | < 5
